Assay results: PMC9954107, “In Vitro and Predictive Computational Toxicology Methods for the Neurotoxic Pesticide Amitraz and Its Metabolites” (Brain Sciences, 2023)

How the values were obtained:
HepG2 cells [1] = assay: MTT cytotoxicity assay; type: cell-based; details: Homo sapiens, read-out: IC50 (µM) ± SEM
Experimental: Human hepatocarcinoma (HepG2) (ATCC: HB-8065) cells were cultured in DMEM medium supplemented with 10% NBCS, 100 U/mL penicillin, and […] streptomycin. The incubation conditions were pH 7.4, 5% CO2 at 37 °C, and 95% air atmosphere at constant humidity. The medium was changed every 5 days. The final pesticide concentrations tested were achieved by adding each pesticide solution to the culture medium with a final MeOH or DMSO concentration ≤ 1% (v/v). Appropriate controls containing the same amounts of solvents were included in each experiment. Absence of mycoplasma was checked routinely using the MycoAlert^TM PLUS Mycoplasma Kit (Lonza, Rockland, ME, USA).
Cytotoxic effects were determined in HepG2 cells by the MTT and total protein content (PC) assays. They have been extensively used in in vitro toxicological studies for measuring cell proliferation and survival. The MTT assay determines the viability of cells by the reduction of yellow soluble tetrazolium salt (MTT), only in the metabolically active cells, via a mitochondrial-dependent reaction to an insoluble purple formazan crystal. The MTT viability assay was performed according to Ruiz et al. (2006). To begin, 2 × 10^4 cell/well were plated in 96-well tissue culture plates. After cells reached 80% confluence, the culture medium was replaced with fresh medium containing serial dilutions of each pesticide (amitraz from […], 2,4-DMF from 93.75 to 1500 µM, and 2,4-DMA from 93.75 to 1500 µM). The pesticides were exposed at 24, 48, and 72 h. During the exposure time, neither the medium nor the pesticides was replenished. After the exposure time, the medium was removed and 200 μL of fresh medium was added to each well. Then we added 50 μL/well of MTT and the plates were returned to the incubator in the darkness. After 3 h of incubation, the MTT solution was removed and 200 μL of DMSO was added, followed by 25 μL Sorensen’s glycine buffer. Plates were gently shaken for 5 min to achieve the complete dissolution. The absorbance was measured at 540 nm using an automatic ELISA plate reader (MultiSkanEX, Thermo Scientific, Waltham, MA, USA).
(§1) For MTT and PC assays, cell viability was expressed as a percentage relative to the control solvent (≤1% MeOH or DMSO). Three independent experiments were conducted for each exposure time and at least in quadruplicate per concentration. The mean inhibition concentration (IC50) values were calculated using SigmaPlot version 11 (Systat Software Inc., GmbH, Germany).

HepG2 cells [2] = assay: Total protein content (PC) cytotoxicity assay; type: cell-based, human; details: for IC50: Homo sapiens, read-out: IC50 (µM) ± SEM; for decrease in cell viability: 72 h
Description: The medium was changed every 5 days. The final pesticide concentrations tested were achieved by adding each pesticide solution to the culture medium with a final MeOH or DMSO concentration ≤ 1% (v/v). Appropriate controls containing the same amounts of solvents were included in each experiment. Absence of mycoplasma was checked routinely using the MycoAlert^TM PLUS Mycoplasma Kit (Lonza, Rockland, ME, USA).
The PC method is based on the increase of absorbance of Coomassie Brilliant Blue dye when binding to proteins. The assay was performed in the same 96-well plates where the MTT test was carried out. First, the plates were washed with PBS and each well received 200 μL of NaOH 0.1 N to dissolve the proteins. […] The plates remained for 30 min at room temperature and the absorbance was measured at 620 nm in an automatic ELISA plate reader (MultiSkanEX, Thermo Scientific, MA, USA).
as §1

[3] = tested on: primary hippocampal cells; details: MTT, 24 h, cited from earlier work
[4] = tested on: human lymphoblastoid (WIL2NS) cell line; design: method as in PMID 16125362; details: from 0.119 to 119 µM, 24, 48, and 72 h; lowest concentration 0.119 µM; cited from earlier work
[5] = PC, HepG2, 24 h, mean ± SEM (n = 3)
[6] = PC, HepG2, 48 h, mean ± SEM (n = 3)
[7] = PC, HepG2, 72 h, mean ± SEM (n = 3)

| Structure (SMILES) | IC50 (HepG2 cells [1]; HepG2, 24 h) [µM] | IC50 (HepG2 cells [1]; HepG2, 48 h) [µM] | IC50 (HepG2 cells [1]; HepG2, 72 h) [µM] | IC50 (HepG2 cells [2]; [5]) [µM] | IC50 (HepG2 cells [2]; [6]) [µM] | IC50 (HepG2 cells [2]; [7]) [µM] | cell viability decreased to (HepG2 cells [2]; PC, HepG2, 1500 µM, 24 h) [%] | IC50 (HepG2 cells [2]; HepG2, 24 h) [µM] | IC50 (HepG2 cells [2]; HepG2, 48 h) [µM] | IC50 (HepG2 cells [2]; HepG2, 72 h) [µM] | decrease in cell viability (HepG2 cells [2]; PC, HepG2, 1250 µM) [%] | decrease in cell viability (HepG2 cells [2]; PC, HepG2, 1500 µM) [%] | metabolic activity ([3]; 100 µM) | cytotoxic effect (cell viability) ([3]; from 60 to 120 µM, effect up to 100 µM) | reduction of cell viability (HepG2 cells [2]; PC, HepG2, from 187.5 μM, three times of exposure) | cytotoxicity (cell viability) [4] |
| --- | --- | --- | --- | --- | --- | --- | --- | --- | --- | --- | --- | --- | --- | --- | --- | --- |
| Cc1ccc(N)c(C)c1 [2,4-DMA, 2,4-dimethylaniline] | > 1500 | > 1500 | > 1500 | > 1500 | > 1500 | > 1500 | 53 |  |  |  |  |  |  |  |  |  |
| Cc1ccc(NC=O)c(C)c1 [2,4-DMF, N-(2,4-dimethylphenyl) formamide] | > 1500 | > 1500 | > 1500 |  |  |  |  | > 1500 | > 1500 | > 1500 | 27 | 32 |  |  |  |  |
| Cc1ccc(/N=C/N(C)/C=N/c2ccc(C)cc2C)c(C)c1 [Amitraz, N,N’-[(methylimino)dimethylidyne]di-2,4-xylidine] | 196 ± 10.1 | 176 ± 5 | 157 ± 10.1 | 260 ± 13.3 | 213 ± 37.5 | 175 ± 2.9 |  |  |  |  |  |  | decrease in metabolic activity | decreased the cell viability in a concentration-dependent manner | 24–100% | significant decrease in cell viability for all concentrations tested, except for the lowest concentration assayed |
